In ChEMBL document CHEMBL1201862, “PubChem BioAssay data set” (2004):
Blank lines part the entries; values can stand above or below the compound they belong to. Calls of active or inactive are those of the source.

Key:
[1] = loss of viability in HepG2 cells – cell-based, CellTiter-Glo, cherry-picked, cytotoxicity control for Shn3 inhibitor project, dose response (AID 624134); assay type: functional
[2] = NIH3T3 cell viability loss – ATP luminescence, mouse fibroblasts, counter-screen, dose response (AID 2010); assay type: functional, cell-based;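 note: cells exposed to compound for about 90 hours before reading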
[3] = tested on: A-375; assay: MITF: Counter assay: A375 proliferation Measured in Cell-Based System Using Plate Reader - 2084-03_Inhibitor_Dose_DryPowder_Activity. [Related pubchem assays (depositor defined):AID488944]; assay type: functional; settings: Homo sapiens
[4] = Trypanosoma cruzi growth suppression in host cells – NIH3T3 host cells, beta-gal luminescence, confirmation (AID 2044); assay type: functional, cell-based;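 note: intracellular parasites grown in NIH/3T3 mouse fibroblasts as host cells; luminescent beta-galactosidase reporter signal from transgenic T. cruzi replicating inside host cells; inhibitors lower the luminescence signal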
[5] = NIH-3T3 fibroblast cytotoxicity, dose response, cytotoxicity control, cell-based, fluorescence, Alamar Blue, secondary assay (AID 2327); assay type: functional;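 note: NIH-3T3 mouse fibroblasts cultured with fluconazole at 8 µg/mL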
[6] = Luminescence Cell-Based Dose Retest to Confirm Inhibitors of Cancer Stem Cells. [Related pubchem assays (depositor defined):AID2717, AID2721]; assay type: functional; settings: Homo sapiens
[7] = fluconazole-exposed Candida albicans growth modulators – fluorescence, retest, confirmation (AID 2467); assay type: functional, cell-based
[8] = non-specific 3'UTR reporter inhibition in Clone20-Shn3RL – cell-based, Renilla luciferase, cherry-picked, counter-screen for Shn3 inhibitor project, dose response (AID 624133); assay type: functional
[9] = biological target: T1, Microphthalmia-associated transcription factor (Homo sapiens, UniProt O75030); assay: reducers of TRPM1 reporter luminescence, concentration series – cell-based, SK-MEL-5, cherry-picked, set 3, MITF inhibitor project, dose response (AID 493073); assay type: functional;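 note: SK-MEL-5 melanoma cells with luciferase driven by the MITF target TRPM1 promoter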
T1 sequence (O75030 whole entry): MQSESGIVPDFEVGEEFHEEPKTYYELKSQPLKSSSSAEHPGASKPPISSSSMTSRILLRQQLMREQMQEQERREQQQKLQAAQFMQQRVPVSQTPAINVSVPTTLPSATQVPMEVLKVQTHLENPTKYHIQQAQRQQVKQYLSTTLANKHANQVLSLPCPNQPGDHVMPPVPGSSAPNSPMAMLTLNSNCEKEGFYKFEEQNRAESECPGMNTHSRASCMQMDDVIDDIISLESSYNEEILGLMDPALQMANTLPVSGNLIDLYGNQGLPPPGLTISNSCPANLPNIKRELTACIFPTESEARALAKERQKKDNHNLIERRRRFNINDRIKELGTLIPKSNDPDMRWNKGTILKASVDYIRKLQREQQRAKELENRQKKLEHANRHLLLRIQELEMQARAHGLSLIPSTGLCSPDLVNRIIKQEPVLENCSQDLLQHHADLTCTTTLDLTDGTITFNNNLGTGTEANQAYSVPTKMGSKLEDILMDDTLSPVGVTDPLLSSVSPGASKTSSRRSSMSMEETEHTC

[10] = tested on: INS1; assay: INS-1E survival protection against cytokine death – cell-based, luminescence, retest, dose response (AID 449756); assay type: functional; settings: Rattus norvegicus;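 note: cell death triggered by IL-1 beta plus TNF-alpha plus IFN-gamma mixture; protective hits raise ATP signal compared with cytokine alone wells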
[11] = reduction of Shn3 3'UTR-driven luciferase in osteoblasts – cell-based, Clone20 osteoblasts, firefly luciferase, cherry-picked, dose response (AID 624132); assay type: functional;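 note: firefly luciferase luminescence from reporter carrying the Shn3 3'UTR in osteoblasts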
[12] = biological target: T2, Polyadenylate-binding protein 1 (Homo sapiens, UniProt P11940); assay: MLLE domain peptide-binding blockers, IC50 – biochemical, fluorescence polarization, FITC-PAM2 peptide, dose response (AID 602259); assay type: functional; settings: read-out: IC50_Mean
T2 sequence (P11940 whole entry, the tested form may be a part): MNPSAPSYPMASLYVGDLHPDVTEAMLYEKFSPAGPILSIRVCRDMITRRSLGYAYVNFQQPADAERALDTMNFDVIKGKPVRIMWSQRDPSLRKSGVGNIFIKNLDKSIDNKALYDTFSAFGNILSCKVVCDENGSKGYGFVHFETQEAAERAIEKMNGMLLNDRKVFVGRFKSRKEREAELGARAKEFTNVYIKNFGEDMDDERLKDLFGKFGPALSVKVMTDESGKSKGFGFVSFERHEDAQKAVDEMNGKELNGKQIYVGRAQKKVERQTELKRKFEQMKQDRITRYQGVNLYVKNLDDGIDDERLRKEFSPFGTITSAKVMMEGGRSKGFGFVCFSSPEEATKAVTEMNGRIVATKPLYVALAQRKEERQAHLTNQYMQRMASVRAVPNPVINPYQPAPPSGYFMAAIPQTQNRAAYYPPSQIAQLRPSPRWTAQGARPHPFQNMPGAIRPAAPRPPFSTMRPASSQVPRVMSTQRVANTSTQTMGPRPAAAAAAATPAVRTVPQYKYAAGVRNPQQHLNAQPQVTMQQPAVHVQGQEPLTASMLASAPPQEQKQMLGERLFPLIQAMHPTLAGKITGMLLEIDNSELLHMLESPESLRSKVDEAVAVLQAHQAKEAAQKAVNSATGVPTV

[13] = biological target: T2, Polyadenylate-binding protein 1; assay: MLLE binding blockers, Cy5 peptide tracer – biochemical, fluorescence polarization, Cy5-PAM2 peptide, secondary, miRNA deadenylation inhibitor project, dose response (AID 602260); assay type: functional; settings: read-out: IC50_Mean
[14] = biological target: Dual specificity tyrosine-phosphorylation-regulated kinase 1A (Rattus norvegicus, UniProt Q63470); assay type: biochemical, Homo sapiens
[15] = biological target: T3, Rac GTPase-activating protein 1 (Homo sapiens, UniProt Q9H0H5); assay: blockers of MgcRacGAP-driven Rac1 GTP hydrolysis – biochemical, ADP Hunter fluorescence, primary and confirmatory, confirmation (AID 624330); assay type: functional
T3 sequence (Q9H0H5 whole entry): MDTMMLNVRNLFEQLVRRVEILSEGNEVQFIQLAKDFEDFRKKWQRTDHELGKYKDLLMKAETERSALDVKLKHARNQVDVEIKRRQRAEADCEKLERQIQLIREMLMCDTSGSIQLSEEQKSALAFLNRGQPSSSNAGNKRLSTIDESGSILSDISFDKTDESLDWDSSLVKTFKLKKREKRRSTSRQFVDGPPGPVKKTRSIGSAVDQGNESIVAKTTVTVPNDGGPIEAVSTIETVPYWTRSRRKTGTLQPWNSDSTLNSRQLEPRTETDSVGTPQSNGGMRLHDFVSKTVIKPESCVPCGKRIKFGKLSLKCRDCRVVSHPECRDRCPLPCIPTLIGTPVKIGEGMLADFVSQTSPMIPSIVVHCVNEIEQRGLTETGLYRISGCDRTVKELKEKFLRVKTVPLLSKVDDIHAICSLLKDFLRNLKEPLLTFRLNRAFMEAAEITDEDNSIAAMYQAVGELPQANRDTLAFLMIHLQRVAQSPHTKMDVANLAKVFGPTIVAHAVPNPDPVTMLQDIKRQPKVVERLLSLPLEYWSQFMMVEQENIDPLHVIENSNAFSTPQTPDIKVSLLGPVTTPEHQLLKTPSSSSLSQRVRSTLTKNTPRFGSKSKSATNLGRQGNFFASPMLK

[16] = biological target: Large T antigen (Simian virus 40, UniProt P03070); assay type: functional, Betapolyomavirus macacae;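 note: Confirmatory-stage PubChem screen for compounds that inhibit SV40 T antigen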
Chain of Large T antigen (P03070 whole entry): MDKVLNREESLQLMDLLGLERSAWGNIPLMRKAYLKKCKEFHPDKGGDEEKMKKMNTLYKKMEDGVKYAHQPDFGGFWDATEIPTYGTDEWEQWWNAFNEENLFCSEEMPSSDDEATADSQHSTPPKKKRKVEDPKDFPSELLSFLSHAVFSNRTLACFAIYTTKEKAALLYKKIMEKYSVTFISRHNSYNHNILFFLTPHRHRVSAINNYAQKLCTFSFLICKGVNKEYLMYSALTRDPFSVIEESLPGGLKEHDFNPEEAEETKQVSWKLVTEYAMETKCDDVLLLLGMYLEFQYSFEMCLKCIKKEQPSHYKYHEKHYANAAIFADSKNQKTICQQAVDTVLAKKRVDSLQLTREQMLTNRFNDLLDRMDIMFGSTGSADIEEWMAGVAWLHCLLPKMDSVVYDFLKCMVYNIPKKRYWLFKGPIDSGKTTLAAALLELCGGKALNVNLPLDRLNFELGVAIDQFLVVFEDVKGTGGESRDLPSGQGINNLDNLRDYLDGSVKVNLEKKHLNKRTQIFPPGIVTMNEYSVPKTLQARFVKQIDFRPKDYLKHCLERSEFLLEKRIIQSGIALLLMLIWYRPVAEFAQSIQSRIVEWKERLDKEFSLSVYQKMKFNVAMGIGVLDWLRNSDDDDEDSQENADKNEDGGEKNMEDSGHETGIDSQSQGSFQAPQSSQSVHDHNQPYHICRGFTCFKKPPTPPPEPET

[17] = biological target: T4, Serine/threonine-protein phosphatase (Candida dubliniensis (strain CD36 / CBS 7987 / NCPF 3949 / NRRLY-17841) (Yeast), UniProt B9W6M3); assay: blockers of CaCl2-induced CDRE-lacZ signaling – S. cerevisiae, luminescence, secondary, dose response (AID 2388); assay type: functional, cell-based;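 note: yeast reporter cells carrying a calcineurin-responsive lacZ construct stimulated with calcium chloride; luminescent beta-galactosidase reporter signal in whole cells rather than isolated phosphatase activity; potency for inhibition where a drop in reporter signal means calcineurin blockade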
T4 sequence (B9W6M3 whole entry): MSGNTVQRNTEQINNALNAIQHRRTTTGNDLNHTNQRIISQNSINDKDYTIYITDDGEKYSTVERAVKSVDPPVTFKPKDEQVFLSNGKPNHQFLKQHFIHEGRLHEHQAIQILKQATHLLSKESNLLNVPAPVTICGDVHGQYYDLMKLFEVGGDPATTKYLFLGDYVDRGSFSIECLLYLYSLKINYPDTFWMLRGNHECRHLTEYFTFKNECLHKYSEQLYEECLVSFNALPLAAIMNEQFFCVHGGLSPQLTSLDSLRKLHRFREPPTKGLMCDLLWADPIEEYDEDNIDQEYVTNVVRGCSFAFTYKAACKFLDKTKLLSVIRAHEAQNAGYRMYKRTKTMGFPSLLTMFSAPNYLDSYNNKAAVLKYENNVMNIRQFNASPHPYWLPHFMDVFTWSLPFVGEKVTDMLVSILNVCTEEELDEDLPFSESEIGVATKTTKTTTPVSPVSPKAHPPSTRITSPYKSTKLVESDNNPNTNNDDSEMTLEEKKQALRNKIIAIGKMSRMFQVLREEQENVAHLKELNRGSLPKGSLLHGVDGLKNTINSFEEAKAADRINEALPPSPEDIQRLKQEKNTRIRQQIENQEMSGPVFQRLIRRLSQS

[18] = biological target: ATP-dependent molecular chaperone HSP82 (Candida albicans (strain WO-1) (Yeast), UniProt C4YTQ8); assay: steroid-induced GRE reporter decrease in yeast – S. cerevisiae, luminescence, Hsp90 inhibitor project, dose response (AID 2400); assay type: functional, cell-based;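 note: beta-galactosidase luminescence from glucocorticoid response element reporter as proxy for Hsp90 function; inhibitor potency where signal loss means Hsp90 inhibition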
Chain of ATP-dependent molecular chaperone HSP82 (C4YTQ8 whole entry): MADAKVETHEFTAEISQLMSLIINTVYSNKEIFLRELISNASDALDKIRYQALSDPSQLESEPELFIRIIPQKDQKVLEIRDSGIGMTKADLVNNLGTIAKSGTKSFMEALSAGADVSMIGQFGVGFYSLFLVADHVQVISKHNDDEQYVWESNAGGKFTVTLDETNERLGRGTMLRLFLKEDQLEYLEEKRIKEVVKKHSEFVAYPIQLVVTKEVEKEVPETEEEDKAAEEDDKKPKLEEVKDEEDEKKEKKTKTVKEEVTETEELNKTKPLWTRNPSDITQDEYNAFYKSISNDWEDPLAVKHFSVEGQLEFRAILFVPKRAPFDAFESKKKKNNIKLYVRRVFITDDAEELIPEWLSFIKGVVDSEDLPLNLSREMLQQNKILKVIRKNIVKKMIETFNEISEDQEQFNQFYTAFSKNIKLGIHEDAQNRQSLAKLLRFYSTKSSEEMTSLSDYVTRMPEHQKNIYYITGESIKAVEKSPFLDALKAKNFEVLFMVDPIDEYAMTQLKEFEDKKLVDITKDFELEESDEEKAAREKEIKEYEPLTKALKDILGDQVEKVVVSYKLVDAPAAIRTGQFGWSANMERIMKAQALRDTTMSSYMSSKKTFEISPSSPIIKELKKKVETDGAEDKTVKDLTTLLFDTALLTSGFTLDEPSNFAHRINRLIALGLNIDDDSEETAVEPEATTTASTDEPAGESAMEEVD

[19] = biological target: Protein Wnt-3a (Mus musculus, UniProt P27467); assay: antagonism of Wnt3a pathway luciferase reporter – Wnt-LIGHT cells, luminescence, selectivity assay for Gli-SUFU antagonist project, dose response (AID 651570); assay type: functional; settings: read-out: IC50_Mean;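 note: Wnt-LIGHT reporter cells stimulated with conditioned medium from Wnt3a-producing cells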
Chain of Protein Wnt-3a (P27467 whole entry): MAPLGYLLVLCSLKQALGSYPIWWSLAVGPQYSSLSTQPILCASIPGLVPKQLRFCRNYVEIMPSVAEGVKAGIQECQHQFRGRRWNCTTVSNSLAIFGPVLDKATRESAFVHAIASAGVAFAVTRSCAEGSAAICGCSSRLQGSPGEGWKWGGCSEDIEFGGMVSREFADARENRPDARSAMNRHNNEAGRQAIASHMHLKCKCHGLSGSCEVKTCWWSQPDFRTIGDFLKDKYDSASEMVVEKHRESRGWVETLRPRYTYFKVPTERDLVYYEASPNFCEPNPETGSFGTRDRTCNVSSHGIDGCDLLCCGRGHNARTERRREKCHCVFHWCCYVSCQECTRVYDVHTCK

[20] = tested on: Vero; assay: viability of Vero cells under compound – cytotoxicity control for flavivirus capping enzyme inhibitors (AID 588742); assay type: functional; settings: Chlorocebus sabaeus
[21] = biological target: T5, Hexokinase HKDC1 (Homo sapiens, UniProt Q2TB90); assay: SAR analysis of small molecule inhibitors of hexokinase domain containing I (HKDC1). [Related pubchem assays (depositor defined):AID493160, AID493190]; assay type: functional
T5 sequence (Q2TB90 whole entry): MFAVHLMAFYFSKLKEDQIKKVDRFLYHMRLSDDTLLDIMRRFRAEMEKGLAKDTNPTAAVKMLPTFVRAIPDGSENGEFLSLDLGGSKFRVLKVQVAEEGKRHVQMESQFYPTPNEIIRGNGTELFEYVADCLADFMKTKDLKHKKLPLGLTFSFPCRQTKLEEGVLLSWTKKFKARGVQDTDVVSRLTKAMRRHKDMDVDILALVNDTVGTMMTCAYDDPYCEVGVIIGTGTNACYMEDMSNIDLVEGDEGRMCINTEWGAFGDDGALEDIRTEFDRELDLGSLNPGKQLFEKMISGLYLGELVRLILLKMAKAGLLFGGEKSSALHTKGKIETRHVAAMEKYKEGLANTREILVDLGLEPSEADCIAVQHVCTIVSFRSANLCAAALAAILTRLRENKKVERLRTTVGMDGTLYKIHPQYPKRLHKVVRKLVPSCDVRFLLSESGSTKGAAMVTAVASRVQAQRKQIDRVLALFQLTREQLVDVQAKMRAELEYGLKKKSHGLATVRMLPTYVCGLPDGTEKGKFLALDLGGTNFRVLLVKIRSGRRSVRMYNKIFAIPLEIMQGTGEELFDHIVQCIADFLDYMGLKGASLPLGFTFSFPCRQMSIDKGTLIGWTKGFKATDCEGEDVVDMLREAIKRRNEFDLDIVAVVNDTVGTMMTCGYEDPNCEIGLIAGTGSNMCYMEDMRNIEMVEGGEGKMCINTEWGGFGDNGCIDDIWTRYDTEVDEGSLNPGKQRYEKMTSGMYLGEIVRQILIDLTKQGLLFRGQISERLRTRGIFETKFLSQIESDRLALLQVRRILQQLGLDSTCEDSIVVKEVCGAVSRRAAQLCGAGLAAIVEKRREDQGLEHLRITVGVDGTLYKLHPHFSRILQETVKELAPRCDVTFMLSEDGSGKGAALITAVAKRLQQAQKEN

[22] = biological target: T6, Hexokinase-1 (Homo sapiens, UniProt P19367); assay: SAR analysis of small molecule inhibitors of hexokinase domain containing I (HKDC1) in the hexokinase 1 selectivity assay. [Related pubchem assays (depositor defined):AID493160, AID493190]; assay type: functional
T6 sequence (P19367 whole entry): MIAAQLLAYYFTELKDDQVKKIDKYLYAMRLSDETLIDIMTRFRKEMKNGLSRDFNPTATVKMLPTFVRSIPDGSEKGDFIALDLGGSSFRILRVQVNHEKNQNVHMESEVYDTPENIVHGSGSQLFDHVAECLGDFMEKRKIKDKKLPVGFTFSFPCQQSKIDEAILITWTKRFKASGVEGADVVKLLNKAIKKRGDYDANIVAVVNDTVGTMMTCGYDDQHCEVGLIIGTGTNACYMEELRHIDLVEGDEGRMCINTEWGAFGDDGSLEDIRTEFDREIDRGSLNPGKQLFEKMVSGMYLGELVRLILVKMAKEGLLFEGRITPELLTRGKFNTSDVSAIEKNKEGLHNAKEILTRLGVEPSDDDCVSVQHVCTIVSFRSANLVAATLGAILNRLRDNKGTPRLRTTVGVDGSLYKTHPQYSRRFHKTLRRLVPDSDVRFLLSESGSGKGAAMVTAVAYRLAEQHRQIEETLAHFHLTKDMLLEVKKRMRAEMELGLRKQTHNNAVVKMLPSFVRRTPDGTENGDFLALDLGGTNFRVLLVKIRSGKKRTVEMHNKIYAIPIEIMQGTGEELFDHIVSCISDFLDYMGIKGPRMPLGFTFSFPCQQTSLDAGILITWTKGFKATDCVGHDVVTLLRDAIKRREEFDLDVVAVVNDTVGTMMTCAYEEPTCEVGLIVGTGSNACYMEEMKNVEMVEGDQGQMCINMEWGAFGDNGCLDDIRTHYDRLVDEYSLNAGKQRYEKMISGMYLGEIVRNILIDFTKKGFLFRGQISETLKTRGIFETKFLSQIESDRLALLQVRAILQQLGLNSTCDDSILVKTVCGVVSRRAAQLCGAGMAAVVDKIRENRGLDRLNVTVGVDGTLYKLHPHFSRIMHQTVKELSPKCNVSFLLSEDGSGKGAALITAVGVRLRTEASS

IC50 [12]: > 66 µM (inactive)
IC50 [13]: > 66 µM (inactive)
SMILES: Cc1ccc(NC(=O)CSC(N)=O)cc1Cl

AC50 [14]: 16.6 µM (active)
IC50 [15]: 128 µM (active)
SMILES: Nc1cc2c([N+](=O)[O-])cccc2o1

AC50 [14]: 10.9 µM (active)
IC50 [16]: 18.9 µM (active)
SMILES: O=C(O)/C=C/c1ccc(O)cc1 [COUMARIC ACID]

AC50 [14]: 12.7 µM (active)
SMILES: O=c1cc(-c2ccc(O)c(O)c2)oc2cc(O[C@@H]3O[C@H](CO)[C@@H](O)[C@H](O)[C@H]3O)cc(O)c12 [GALUTEOLIN]

IC50 [21]: > 80 µM (inactive)
IC50 [22]: > 80 µM (inactive)
SMILES: O=C(Nc1nnc(SCc2ccc(Cl)cc2)s1)c1ccc2ncsc2c1

IC50 [21]: > 80 µM (inactive)
IC50 [22]: > 80 µM (inactive)
SMILES: COc1ccccc1/C=C/c1nc2ccccc2c(=O)n1Cc1ccccc1

Second part, the compound before the results:

SMILES: O=S(=O)(c1ccc(Cl)cc1)N1CCN(Cc2ccc(O)c3ncccc23)CC1
AC50 [1]: 43.9 µM (active)
EC50 [2]: > 30 µM (not active)
AC50 [3]: 40.6 µM (active)
EC50 [4]: 1.37 µM (active)
EC50 [5]: 16.6 µM (active)
AC50 [6]: 5.13 µM (active)
EC50 [7]: 2.53 µM (active)
AC50 [8]: 16.4 µM (active)
AC50 [9]: 4.37 µM (active)
AC50 [10]: 2.42 µM (active)
AC50 [11]: 3.01 µM (active)

SMILES: O=C(Nc1cccs1)Nc1c(F)c(F)c(F)c(F)c1F
IC50 [12]: > 66 µM (inactive)
IC50 [13]: > 66 µM (inactive)

SMILES: CCc1ccccc1N=C(S)N=Nc1c(O)n(C)c2ccc(S(=O)(=O)N3CCOCC3)cc12
EC50 [17]: > 180 µM (inactive)
EC50 [5]: > 150 µM (inconclusive)
EC50 [18]: 40.9 µM (active)
EC50 [7]: > 38 µM (not active)
IC50 [19]: 13.3 µM (active)

SMILES: COC/C=C/C1=CC2=CC(=O)C(C)(OC(=O)c3cnc4ccccc4n3)C(=O)C2=CN1Cc1ccc(OC)cc1 (configuration not stated)
CC50 [20]: 39.2 µM (active)

SMILES: O=C(Nc1cccc(C(=O)Nc2cccc(C(F)(F)F)c2)c1)c1ccncc1
IC50 [21]: > 80 µM (inactive)
IC50 [22]: > 80 µM (inactive)
